Read-outs that look alike come from different tables or passages of the source.
What was measured:
C3aR [1] = target: T1, C3aR (Homo sapiens, UniProt Q16581); test: Calcium mobilization assay in HMDM (agonist/antagonist activity); assay type: cell-based; conditions: for IC50: Table 13, calcium release from HMDM, read-out: Antagonist Activity IC50
T1 construct: peripheral blood mononuclear cells were isolated from buffy coat (obtained from Australian Red Cross Blood Service, Kelvin Grove); endogenous in cells; host or cells: primary human monocyte-derived macrophages (HMDM) differentiated from CD14+ monocytes of donor buffy coat
T1 sequence (Q16581 1-482): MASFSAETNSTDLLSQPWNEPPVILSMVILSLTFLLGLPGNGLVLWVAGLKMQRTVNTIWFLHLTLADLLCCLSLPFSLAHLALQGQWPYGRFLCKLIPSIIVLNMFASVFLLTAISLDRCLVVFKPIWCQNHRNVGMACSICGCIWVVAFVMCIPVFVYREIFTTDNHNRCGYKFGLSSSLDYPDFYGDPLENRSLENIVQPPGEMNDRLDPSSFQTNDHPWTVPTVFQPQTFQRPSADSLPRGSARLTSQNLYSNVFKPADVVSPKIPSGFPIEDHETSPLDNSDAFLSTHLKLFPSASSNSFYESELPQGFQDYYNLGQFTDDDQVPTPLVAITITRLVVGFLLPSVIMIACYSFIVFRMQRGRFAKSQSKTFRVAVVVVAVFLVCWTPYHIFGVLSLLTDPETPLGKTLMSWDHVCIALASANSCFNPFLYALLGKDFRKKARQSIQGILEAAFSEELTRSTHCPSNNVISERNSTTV
Experimental: Harvested HMDM cells were washed with 0.9% NaCl solution by centrifugation at 2500 rpm for 5 min, followed by resuspension of the cell pellet with complete media. Cells were seeded at 5×10^4 cells/well in a 96-well black-wall, clear bottom plate (DKSH, Zurich), and left overnight to adhere at 37° C. On the day of the experiment, supernatant was removed and cells were incubated in dye loading buffer (Hank's Balanced Salt Solution (HBSS) with 4 μM Fluo-3, 25 μL pluronic acid, 1% fetal bovine serum (FBS) and 2.5 mM probenecid) for one hour at 37° C. Cells were then washed twice with HBSS and transferred to a Fluorostar spectrofluorimeter (BMG, Durham N.C.) for oxazole compound injection and fluorescence measurements.
Various compounds were examined in the calcium mobilization assay for agonist or antagonist activity compared to hC3a and to the known antagonist SB290157.
HMDMs were seeded into black-wall, clear bottom 96-well plates (Corning Incorporated, NY) at 50,000 cells/well and left to incubate at 37° C. with 5% CO2 overnight for cells to adhere. The medium was removed before being washed with the assay buffer (1×HBSS, 20 mM HEPES, 2.5 mM probenecid, pH 7.4). To each well was added 100 μL of dye-loading buffer made up of 12 mL calcium buffer, 1% FBS, 25 μL of Fluo-3 dye (final concentration of 4 μM) and 25 μL of 20% pluronic acid. The plate was covered in aluminium foil to protect the light-sensitive dye and left to incubate at 37° C. for 1 h. The dye-loading buffer was removed before the cells were washed with the assay buffer to remove excess loading dye. To each well was added 50 μL of fresh assay buffer before the plate was loaded into a FLIPR (Fluorescent Imaging Plate Reader) that can inject treatments and measure any calcium release. To generate agonist plots, calcium release was monitored for 300 seconds. To generate antagonist plots, calcium release was recorded for 900 seconds, which at the same time would allow incubation for the antagonists. After the initial incubation period, an agonist would be added and the response was recorded for 300 seconds. Intracellular release of calcium was recorded via fluorescence measurements at wavelength of 485 nm for excitation and 520 nm for emission.

C3a receptor (C3aR) = target: T2, C3a receptor (C3aR) (Homo sapiens, UniProt Q16581); test: Competitive binding with [^125I]-C3a in HMDM; conditions: HMDM
T2 construct: peripheral blood mononuclear cells were isolated from buffy coat (obtained from Australian Red Cross Blood Service, Kelvin Grove); endogenous in cells; host or cells: primary human monocyte-derived macrophages (HMDM) differentiated from CD14+ monocytes of donor buffy coat
T2 sequence (Q16581 1-482): T1 sequence (Q16581 1-482)
How it was run: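 IC50 values are geometric means, with −log IC50 computed per experiment and given as arithmetic mean ± SE. Cells were CD14+ monocytes from buffy-coat PBMC, differentiated to macrophages and used on day 7. Unbound label was removed by GF/B filtration with 3 cold washes in 50 mM Tris-HCl pH 7.4.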

C3aR [2] = target: T1, C3aR; test: Desensitization experiments (Ca^2+ efflux after hC3a desensitization); assay type: cell-based; conditions: hC3a 3 μM first; second addition of 1 μM compound; HMDM
Experimental: Desensitization experiments were used to measure the selectivity of various ligands for C3aR, since this can help to clarify whether the non-peptidic ligands bind selectively to C3aR over other GPCRs that signal through intracellular calcium release.
The hC3a (3 μM) was administered to human monocyte derived macrophage cells, which produces an efflux of intracellular Ca^2+ that dissipates after 4-5 mins (FIGS. 4A and 4B). A second addition of 3 μM hC3a after 5 mins has no effect, due to desensitization of the receptor through either receptor (C3a receptor) phosphorylation or receptor internalization from the cell surface.

[3] = Table 9, Ca^2+ mobilization, HMDM, read-out: pEC50 ± SEM (converted)
[4] = Table 11, Ca^2+ mobilisation, HMDM, read-out: Apparent Antagonist Activity EC50
[5] = quoted in text of Example 98, read-out: EC50
[6] = Table 6, competitive binding with [^125I]-C3a, read-out: IC50 (converted)
[7] = Table 6, competitive binding with [^125I]-C3a, read-out: pIC50 ± SEM (converted)
[8] = Table 11, [^125I]-C3a, read-out: Receptor Binding Affinity IC50
[9] = Table 11, [^125I]-C3a, read-out: Receptor Binding Affinity pIC50 ± SE (converted)
[10] = Table 9, Ca^2+ mobilization, HMDM
[11] = Table 6, competitive binding with [^125I]-C3a
[12] = Table 9, Ca^2+ mobilization, HMDM, read-out: EC50

Compound | IC50 (C3a receptor (C3aR); [6]) | EC50 (C3aR [1]; [12]) | IC50 (C3aR [1]) | Ca^2+ efflux on addition after first desensitization with hC3a (selectivity for C3aR over other GPCRs) (C3aR [2]) | other results
CC(C)C[C@H](NC(=O)OC(C)(C)C)c1nc(C(=O)NC(CCCNC(=N)N)C(=O)O)co1 (stereo partly shown) [Compound 1, Boc-leucine oxazole-arginine-OH] | 20 nM |  |  | did not produce calcium efflux | EC50 (C3aR [1]; [3]): 19.1 nM; EC50 (C3aR [1]; [4]): 19 nM; EC50 (C3aR [1]; [5]): 19 nM; IC50 (C3a receptor (C3aR); [7]): 19.5 nM; IC50 (C3a receptor (C3aR); [8]): 20 nM; IC50 (C3a receptor (C3aR); [9]): 19.5 nM
CC[C@H](C)[C@H](NC(=O)OC(C)(C)C)c1nc(C(=O)N[C@@H](CCCNC(=N)N)C(=O)O)co1 [Compound 2] | 30 nM |  |  | did not produce calcium efflux | pEC50 ± SEM (C3aR [1]; [10]): 7.57 ± 0.11; EC50 (C3aR [1]; [5]): 27 nM; pIC50 ± SEM (C3a receptor (C3aR); [11]): 7.53 ± 0.10
CC[C@H](C)[C@H](NC(=O)c1nccc2ccccc12)c1nc(C(=O)N[C@@H](CCCNC(=N)N)C(=O)O)co1 [Compound 10, Isoquinoline-1-Isoleucine-Oxazole-Arginine-OH] | 123 nM |  |  | did not produce calcium efflux | EC50 (C3aR [1]; [3]): 40.7 nM
CC[C@H](C)[C@H](NC(=O)CCC(=O)c1ccc(-c2ccccc2)cc1)c1nc(C(=O)N[C@@H](CCCNC(=N)N)C(=O)O)co1 [Compound 16, 4-(biphenyl-4-yl)-4-oxobutanoic acid-Isoleucine-Oxazole-Arginine-OH] | 155 nM |  |  | did not produce calcium efflux | pEC50 ± SEM (C3aR [1]; [10]): 8.12 ± 0.21; EC50 (C3aR [1]; [5]): 8 nM; pIC50 ± SEM (C3a receptor (C3aR); [11]): 6.81 ± 0.07
CC[C@H](C)[C@H](NC(=O)c1ccccc1Oc1ccccc1)c1nc(C(=O)N[C@@H](CCCNC(=N)N)C(=O)O)co1 [Compound 18, 2-phenoxy benzoic acid-isoleucine-oxazole-arginine-OH] | 55 nM | 54 nM |  | caused a second efflux of intracellular Ca^2+ | pEC50 ± SEM (C3aR [1]; [10]): 7.26 ± 0.08; pIC50 ± SEM (C3a receptor (C3aR); [11]): 7.26 ± 0.09
CC[C@H](C)[C@H](NC(=O)OC(C)(C)C)c1nc(C(=O)N[C@@H](CCCNC(=N)N)C(=O)O)c(C)o1 [Compound 25, Boc-isoleucine-5-methyl-oxazole-arginine-OH] |  | 45 nM |  | caused a second efflux of intracellular Ca^2+ | EC50 (C3aR [1]; [4]): 45 nM; EC50 (C3aR [1]; Table 11, Ca^2+ mobilisation, HMDM, read-out: Apparent Antagonist Activity pEC50 ± SE (converted)): 39.8 nM; IC50 (C3a receptor (C3aR); [7]): 13.8 nM; IC50 (C3a receptor (C3aR); [8]): 15 nM; IC50 (C3a receptor (C3aR); [9]): 13.8 nM
Cc1[nH]c([C@H](CC(C)C)NC(=O)c2c[nH]c3ccccc23)nc1C(=O)N[C@@H](CCCNC(=N)N)C(=O)O [Compound 79, 3-Indole carboxylic acid-Leucine-5-methyl-imidazole-Arginine-OH] | 12 nM | 15 nM |  |  | 
Cc1[nH]c([C@H](CC(C)C)NC(=O)OC(C)(C)C)nc1C(=O)N[C@@H](CCCNC(=N)N)C(=O)O [Compound 80, Boc-Leucine-imidazole-Arginine-OH] | 38 nM | 120 nM |  |  | 
Cc1nc([C@H](CC(C)C)NC(=O)OC(C)(C)C)sc1C(=O)N[C@@H](CCCNC(=N)N)C(=O)O [Compound 82, Boc-Leucine-thiazole-Arginine-OH] | 375 nM |  | 200 nM |  | 
CC(C)C[C@H](NC(=O)OC(C)(C)C)c1nc(C(=O)N[C@@H](CCCN/C(N)=N\C#N)C(=O)O)co1 [Compound 90, (S)-2-(2-((S)-1-((tert-butoxycarbonyl)amino)-3-methylbutyl)oxazole-4-carboxamido)-5-((Z)-2-cyanoguanidino)pentanoic acid] | 41 nM | 250 nM |  |  | 
CC(C)C[C@H](NC(=O)OC(C)(C)C)c1nc(C(=O)N[C@@H](CCONC(=N)N)C(=O)O)co1 [Compound 91, (S)-2-(2-((S)-1-((tert-butoxycarbonyl)amino)-3-methylbutyl)oxazole-4-carboxamido)-4-(guanidinooxy)butanoic acid] | 93 nM | 370 nM |  |  | 

Continued, in another order:

IC50 (C3a receptor (C3aR); [6]) | EC50 (C3aR [1]; [12]) | IC50 (C3aR [1]) | Compound | Ca^2+ efflux on addition after first desensitization with hC3a (selectivity for C3aR over other GPCRs) (C3aR [2]) | other results
7.5 nM |  | 1300 nM | CC(C)C[C@H](NC(=O)OC(C)(C)C)c1nc(C(=O)N[C@@H](CCCNC(=N)N)C(=O)NS(=O)(=O)c2ccccc2)co1 [Compound 92, tert-butyl ((S)-1-(4-(((S)-5-guanidino-1-oxo-1-(phenylsulfonamido)pentan-2-yl)carbamoyl)oxazol-2-yl)-3-methylbutyl)carbamate] |  | 
30 nM |  | 2000 nM | CC(C)C[C@H](NC(=O)OC(C)(C)C)c1nc(C(=O)N[C@@H](CCCNC(=N)N)C(=O)NS(C)(=O)=O)co1 [Compound 93, tert-butyl ((S)-1-(4-(((S)-5-guanidino-1-(methylsulfonamido)-1-oxopentan-2-yl)carbamoyl)oxazol-2-yl)-3-methylbutyl)carbamate] |  | 
35 nM |  | 300 nM | N=C(N)NCCC[C@H](NC(=O)c1ccc(C(c2ccccc2)c2ccccc2)s1)C(=O)NS(=O)(=O)c1ccccc1 [Compound 94, (S)-5-benzhydryl-N-(5-guanidino-1-oxo-1-(phenylsulfonamido)pentan-2-yl)thiophene-2-carboxamide] |  | 
853 nM |  | 900 nM | N#CN=C(N)NCCC[C@H](NC(=O)c1ccc(C(c2ccccc2)c2ccccc2)s1)C(=O)O [Compound 95, (S)-2-(5-benzhydrylthiophene-2-carboxamido)-5-(2-cyanoguanidino)pentanoic acid] |  | 
888 nM |  | 2000 nM | N#CN=C(N)NCCC[C@H](NC(=O)c1ccc(C(c2ccccc2)c2ccccc2)s1)C(=O)NS(=O)(=O)c1ccccc1 [Compound 96, (S)-5-benzhydryl-N-(5-(2-cyanoguanidino)-1-oxo-1-(phenylsulfonamido)pentan-2-yl)thiophene-2-carboxamide] |  | 
31 nM | 40 nM |  | Cc1nc(C(c2ccccc2)c2ccccc2)n(C)c1C(=O)N[C@@H](CCCNC(=N)N)C(=O)O [Compound 98, 2-Benzhydryl-1,4-Dimethyl imidazole-5-carboxyl-Arginine] |  | 
